Biological target: T1, human cGAS (residues 161-522) (Homo sapiens, UniProt Q8N884)
T1 construct: Recombinantly expressed purified human cGAS (residues 161-522) was used at 25nM; made in house
Assay: Malachite Green assay to measure cGAS activity (coupled enzymatic assay, phosphate detection)
Assay type: biochemical
Conditions: recombinant purified human cGAS 25 nM; 80 μM ATP, 80 μM GTP, 100 nM ISD; 4 hour at RT; absorbance 620 nm
Experimental: Malachite Green Assay to Measure cGAS Activity
Compounds were tested for cGAS inhibition in a coupled enzymatic assay based on Phosphate detection by Malachite Green. Final assay conditions were 20 mM TRIS pH 7.5 (Applichem), 5 mM MgCl2 (Sigma) and 0.01% BSA (Sigma) supplemented with 80 μM ATP (Sigma), 80 μM GTP (Sigma) and 100 nM Interferon Stimulating DNA (ISD) (Microsynth). Recombinantly expressed purified human cGAS (residues 161-522) was used at 25nM.
All compounds were prepared as 10 mM stock solutions in DMSO and a 16 pt dilution series in DMSO with a dilution factor of 2.5 was prepared. 1 μL of DMSO dilution series was transferred to 32.3 μL reaction buffer, mixed by pipetting up/down, spun for 1 minute at 3000 rpm and was visually inspected for precipitation. 5 μL of 3-fold enzyme stock solution were transferred to an empty 384-well Black/Clear Flat Bottom Polystyrene NBS (Corning) rows 3-24. Rows 1-2 were filled with assay buffer. Plates were spun 10 seconds at 1000 rpm (164×g). 5 μL of compound intermediate dilution was added and mixed by pipetting up/down to rows 3-24. Rows 1-2 were filled with 3.1% DMSO assay buffer. Plates were spun 10 seconds at 1000 rpm (164×g). 5 μL 3-fold Nucleotide/DNA mix was added to all wells to start the reaction. Plates were spun 10 seconds at 1000 rpm (164×g) and incubated for 4 hour at room temperature (RT) in the dark. 5 μL 4U/mL PPase (Sigma) were added to all wells. Plates spun 10 seconds at 1000 rpm (164×g). 10 μL BioMol green Solution (Enzo Life Sciences) was added to all wells. Plates spun 10 seconds at 1000 rpm (164×g) and incubated 30 minutes at RT in the dark. Absorbance data was collected 620 nm on an EnVision Multilable Reader (Perkin Elmer) and the following measurement settings were used: excitation filter photometric was 620 nm; excitation from the top; measurement height was 1 mm; number of flashes was 30; number of flashes integrated was 1.
All plates are checked for abnormalities and outliers in the Blank Control (no protein, row 1) and the Neutral Control (no compound, row 2) are excluded using the 3*SD rule. Data was normalized to 0 and 100% by Blank and Neutral Control and each curve was fitted and judged using the 4 parameter logistic equation to determine the IC50 for cGAS inhibition.
Table 1 provides IC50 values (μM) for cGAS inhibition obtained for particular examples of the present invention as measured by the above-described assay.

T1 sequence (Q8N884 161-522): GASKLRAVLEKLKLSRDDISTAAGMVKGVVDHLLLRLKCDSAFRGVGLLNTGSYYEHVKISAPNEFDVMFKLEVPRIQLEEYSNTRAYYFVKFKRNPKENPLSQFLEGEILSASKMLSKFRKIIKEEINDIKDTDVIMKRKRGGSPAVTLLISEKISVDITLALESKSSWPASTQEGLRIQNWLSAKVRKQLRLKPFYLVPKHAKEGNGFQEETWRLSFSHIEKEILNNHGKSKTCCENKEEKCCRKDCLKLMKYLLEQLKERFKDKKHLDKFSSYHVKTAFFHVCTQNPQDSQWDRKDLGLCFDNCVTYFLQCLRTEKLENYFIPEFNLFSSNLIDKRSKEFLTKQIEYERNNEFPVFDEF

SMILES	IC50 [µM]
Cc1ccc(-c2cc(C(=O)O)c3cn(CCN4CCN(C)CC4)nc3c2)c(Cl)c1 [Example 1, 6-(2-Chloro-4-methylphenyl)-2-(2-(4-methylpiperazin-1-yl)ethyl)indazole-4-carboxylic acid]	1.92
Cc1ccc(-c2cc(C(=O)O)c3cn(Cc4ccccc4Cl)nc3c2)c(Cl)c1 [Example 2, 6-(2-Chloro-4-methylphenyl)-2-[(2-chlorophenyl)methyl]indazole-4-carboxylic acid]	2.2
Cc1ccc(-c2cc(C(=O)O)c3cn(Cc4cccc(Cl)c4)nc3c2)c(Cl)c1 [Example 3, 6-(2-Chloro-4-methylphenyl)-2-[(3-chlorophenyl)methyl]indazole-4-carboxylic acid]	3.18
Cc1ccc(-c2cc(C(=O)O)c3cn(Cc4ccc(Cl)cc4)nc3c2)c(Cl)c1 [Example 4, 6-(2-Chloro-4-methylphenyl)-2-[(4-chlorophenyl)methyl]indazole-4-carboxylic acid]	2.76
Cc1ccc(-c2cc(C(=O)O)c3cn(Cc4nc(C5CC5)no4)nc3c2)c(Cl)c1 [Example 5, 6-(2-Chloro-4-methylphenyl)-2-((3-cyclopropyl-1,2,4-oxadiazol-5-yl)methyl)indazole-4-carboxylic acid]	2.21
Cc1ccc(-c2cc(C(=O)O)c3cn(Cc4cccnc4)nc3c2)c(Cl)c1 [Example 6, 6-(2-Chloro-4-methylphenyl)-2-(pyridin-3-ylmethyl)indazole-4-carboxylic acid]	2.93
Cc1ccc(-c2cc(C(=O)O)c3cn(Cc4ccccn4)nc3c2)c(Cl)c1 [Example 7, 6-(2-Chloro-4-methylphenyl)-2-(pyridin-2-ylmethyl)indazole-4-carboxylic acid]	2.4
Cc1ccc(-c2cc(C(=O)O)c3cn(Cc4nc(C)c(C)o4)nc3c2)c(Cl)c1 [Example 8, 6-(2-Chloro-4-methylphenyl)-2-((4,5-dimethyloxazol-2-yl)methyl)indazole-4-carboxylic acid]	2.74
Cc1ccc(-c2cc(C(=O)O)c3cn(CC(F)(F)F)nc3c2)c(Cl)c1 [Example 9, 6-(2-Chloro-4-methylphenyl)-2-(2,2,2-trifluoroethyl)-2H-indazole-4-carboxylic acid]	1.56
Cc1ccc(-c2cc(C(=O)O)c3cn(Cc4ccccc4)nc3c2)c(Cl)c1 [Example 10, 2-Benzyl-6-(2-chloro-4-methylphenyl)-2H--indazole-4-carboxylic acid]	1.37
Cc1ccc(-c2cc(C(=O)O)c3cn(CCc4ccccc4)nc3c2)c(Cl)c1 [Example 11, 6-(2-Chloro-4-methylphenyl)-2-phenethyl-2H-indazole-4-carboxylic acid]	2.35
Cc1cc(Cl)c(-c2cc(C(=O)O)c3cn[nH]c3c2)cc1F [Example 12, 6-(2-Chloro-5-fluoro-4-methylphenyl)-1H-indazole-4-carboxylic acid]	4.59
Cc1ccc(-c2cc(C(=O)O)c3cn[nH]c3c2)c(Cl)c1 [Example 13, 6-(2-Chloro-4-methylphenyl)-1H-indazole-4-carboxylic acid]	4.46

— US20230192623A1, “Indazole Derivatives” (Hoffmann-La Roche Inc., priority 2020, published 2023)
